The supplement of paper PMC6045584
± gives the standard deviation of the averaged measurements.

These test systems were tested with CC[C@@]1(O)C(=O)OCc2c1cc1n(c2=O)Cc2cc3ccccc3nc2-1 [CAMPTOTHECIN] (assay: surviving fraction relative to DMSO-only wells; higher = less growth inhibition). Details: 10 nM; exposure time: 5 days.
Outline: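 Surviving fraction is CellTiter-Glo luminescence divided by the median of wells given DMSO only. For this, log-phase tumour cell lines went into 384-well plates at 250–500 cells per well and, 24 hours later, into five days of continuous inhibitor exposure at 0.5, 1, 5, 10, 50, 100, 500 and 1000 nM. Lines were screened three times and retained only if replicate Pearson r >0.7 and median Z' >0.3.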

Row | Test System | surviving fraction
1 | SIHA CERVIX | 0.539 ± 0.1
2 | SJSA1 BONE | 1.2 ± 0.017
3 | SNU475 LIVER | 0.482 ± 0.023
4 | SUM44 BREAST | 0.846 ± 0.056
5 | SUM159 BREAST | 0.26 ± 0.0036
6 | U2OS BONE | 0.733 ± 0.03
7 | VCAP PROSTATE | 0.508 ± 0.034
8 | VP229 BREAST | 0.662 ± 0.14
9 | YAMATO SYNOVIAL | 0.479 ± 0.033
10 | ZR751 BREAST | 0.586 ± 0.099

Same assay, conditions: 50 nM; exposure time: 5 days

Row | Test System | surviving fraction
11 | 143B BONE | 0.12 ± 0.005
12 | ASKA SYNOVIAL | 0.118 ± 0.005
13 | BT20 BREAST | 0.096 ± 0.0052
14 | BT549 BREAST | 0.032 ± 0.004
15 | CADOES1 SOFT TISSUE | 0.045 ± 0.0044
16 | CCK81 LARGE INTESTINE | 0.506 ± 0.051
17 | CHLA90 AUTONOMIC GANGLIA | 0.173 ± 0.0053
18 | CME SYNOVIAL | 0.028 ± 0.0027
19 | HCC78 LUNG | 0.0137 ± 0.0031
20 | HCC202 BREAST | 0.78 ± 0.14
21 | HMLE3 BREAST | 0.127 ± 0.026
22 | HMT3552 BREAST | 0.224 ± 0.0076
23 | HS57T BREAST | 0.192 ± 0.007
24 | HT1080 SOFT TISSUE | 0.377 ± 0.014
25 | LM7 BONE | 0.145 ± 0.018
26 | MDAMB157 BREAST | 0.26 ± 0.0076
27 | MFM223 BREAST | 0.754 ± 0.087
28 | MG63 BONE | 0.0393 ± 0.0065

Row | Test System | surviving fraction
29 | NOS1 BONE | 0.636 ± 0.037
30 | RDES SOFT TISSUE | 0.0347 ± 0.0011
31 | SCC47 HEADNECK | 0.46 ± 0.012
32 | SG27 HEADNECK | 0.724 ± 0.034
33 | SG28 HEADNECK | 0.337 ± 0.015
34 | SG31 HEADNECK | 0.376 ± 0.021
35 | SG32 HEADNECK | 0.25 ± 0.036
36 | SIHA CERVIX | 0.44 ± 0.039
37 | SJSA1 BONE | 1.25 ± 0.084
38 | SNU475 LIVER | 0.162 ± 0.0079
39 | SUM44 BREAST | 0.985 ± 0.12
40 | SUM159 BREAST | 0.1303 ± 0.00058
41 | U2OS BONE | 0.567 ± 0.011
42 | VCAP PROSTATE | 0.412 ± 0.028
43 | VP229 BREAST | 0.569 ± 0.037
44 | YAMATO SYNOVIAL | 0.0957 ± 0.0085
45 | ZR751 BREAST | 0.266 ± 0.024

Same assay, conditions: 100 nM; exposure time: 5 days

Row | Test System | surviving fraction
46 | 143B BONE | 0.0595 ± 0.0064
47 | ASKA SYNOVIAL | 0.21 ± 0.0046
48 | BT20 BREAST | 0.0537 ± 0.0075
49 | BT549 BREAST | 0.0227 ± 0.00058
50 | CADOES1 SOFT TISSUE | 0.0337 ± 0.0064
51 | CCK81 LARGE INTESTINE | 0.416 ± 0.046
52 | CHLA90 AUTONOMIC GANGLIA | 0.268 ± 0.0099
53 | CME SYNOVIAL | 0.152 ± 0.017
54 | HCC78 LUNG | 0.0147 ± 0.0023
55 | HCC202 BREAST | 0.767 ± 0.1
56 | HMLE3 BREAST | 0.0547 ± 0.0029
57 | HMT3552 BREAST | 0.215 ± 0.0061
58 | HS57T BREAST | 0.149 ± 0.0066
59 | HT1080 SOFT TISSUE | 0.26 ± 0.022
60 | LM7 BONE | 0.0813 ± 0.0095
61 | MDAMB157 BREAST | 0.247 ± 0.019
62 | MFM223 BREAST | 0.662 ± 0.041
63 | MG63 BONE | 0.024 ± 0.001

Row | Test System | surviving fraction
64 | NOS1 BONE | 0.552 ± 0.036
65 | RDES SOFT TISSUE | 0.0297 ± 0.0015
66 | SCC47 HEADNECK | 0.375 ± 0.029
67 | SG27 HEADNECK | 0.928 ± 0.096
68 | SG28 HEADNECK | 0.55 ± 0.044
69 | SG31 HEADNECK | 0.37 ± 0.049
70 | SG32 HEADNECK | 0.263 ± 0.037
71 | SIHA CERVIX | 0.377 ± 0.0053
72 | SJSA1 BONE | 1.11 ± 0.093
73 | SNU475 LIVER | 0.194 ± 0.012
74 | SUM44 BREAST | 0.927 ± 0.096
75 | SUM159 BREAST | 0.0763 ± 0.0031
76 | U2OS BONE | 0.464 ± 0.0056
77 | VCAP PROSTATE | 0.4023 ± 0.0023
78 | VP229 BREAST | 0.348 ± 0.084
79 | YAMATO SYNOVIAL | 0.247 ± 0.026
80 | ZR751 BREAST | 0.223 ± 0.005

Same assay, conditions: 500 nM; exposure time: 5 days

Row | Test System | surviving fraction
81 | 143B BONE | 0.021
82 | ASKA SYNOVIAL | 0.157 ± 0.0082
83 | BT20 BREAST | 0.0213 ± 0.0015
84 | BT549 BREAST | 0.02
85 | CADOES1 SOFT TISSUE | 0.0317 ± 0.0021
86 | CCK81 LARGE INTESTINE | 0.056 ± 0.007
87 | CHLA90 AUTONOMIC GANGLIA | 0.133 ± 0.033
88 | CME SYNOVIAL | 0.1177 ± 0.00058
89 | HCC78 LUNG | 0.013 ± 0.0027
90 | HCC202 BREAST | 0.478 ± 0.0071
91 | HMLE3 BREAST | 0.0203 ± 0.0015
92 | HMT3552 BREAST | 0.0953 ± 0.005
93 | HS57T BREAST | 0.0707 ± 0.0025
94 | HT1080 SOFT TISSUE | 0.0953 ± 0.016
95 | LM7 BONE | 0.024 ± 0.0035
96 | MDAMB157 BREAST | 0.135 ± 0.0051
97 | MFM223 BREAST | 0.296 ± 0.072
98 | MG63 BONE | 0.02 ± 0.001

Row | Test System | surviving fraction
99 | NOS1 BONE | 0.392 ± 0.039
100 | RDES SOFT TISSUE | 0.0263 ± 0.0011
101 | SCC47 HEADNECK | 0.204 ± 0.0038
102 | SG27 HEADNECK | 0.482 ± 0.055
103 | SG28 HEADNECK | 0.211 ± 0.04
104 | SG31 HEADNECK | 0.189 ± 0.017
105 | SG32 HEADNECK | 0.0417 ± 0.0055
106 | SIHA CERVIX | 0.099 ± 0.0017
107 | SJSA1 BONE | 1.14 ± 0.24
108 | SNU475 LIVER | 0.103 ± 0.0081
109 | SUM44 BREAST | 0.326 ± 0.038
110 | SUM159 BREAST | 0.03 ± 0.001
111 | U2OS BONE | 0.121 ± 0.013
112 | VCAP PROSTATE | 0.219 ± 0.034
113 | VP229 BREAST | 0.0443 ± 0.01
114 | YAMATO SYNOVIAL | 0.16 ± 0.0095
115 | ZR751 BREAST | 0.121 ± 0.0096

Same assay, conditions: 1000 nM; exposure time: 5 days

Row | Test System | surviving fraction
116 | 143B BONE | 0.0245 ± 0.00071
117 | ASKA SYNOVIAL | 0.231 ± 0.0075
118 | BT20 BREAST | 0.0257 ± 0.0025
119 | BT549 BREAST | 0.023 ± 0.002
120 | CADOES1 SOFT TISSUE | 0.0297 ± 0.0015
121 | CCK81 LARGE INTESTINE | 0.0267 ± 0.0049
122 | CHLA90 AUTONOMIC GANGLIA | 0.137 ± 0.027
123 | CME SYNOVIAL | 0.229 ± 0.0051
124 | HCC78 LUNG | 0.016 ± 0.0027
125 | HCC202 BREAST | 0.357 ± 0.0042
126 | HMLE3 BREAST | 0.0213 ± 0.00058
127 | HMT3552 BREAST | 0.0647 ± 0.0081
128 | HS57T BREAST | 0.0653 ± 0.0081
129 | HT1080 SOFT TISSUE | 0.0837 ± 0.0075
130 | LM7 BONE | 0.0243 ± 0.00058
